In patent publication US20110160196A1, “FACTOR XA INHIBITORS” (Millennium Pharmaceuticals, Inc., priority 2007, published 2011):

biological target: T1, human plasma protein factor Xa (Homo sapiens, UniProt P00742); assay: Factor Xa IC50 determination (cleavage of paranitroanilide substrate S-2765); assay type: biochemical; settings: factor Xa 1 nM, S-2765 100 μM, Tris buffered saline pH 7.4, read at 405 nm
T1 construct: The human plasma protein factor Xa was purchased; purchased Haematologic Technologies (Essex Junction, Vt.); host or cells: human plasma
T1 sequence (P00742 235-488 limits assumed): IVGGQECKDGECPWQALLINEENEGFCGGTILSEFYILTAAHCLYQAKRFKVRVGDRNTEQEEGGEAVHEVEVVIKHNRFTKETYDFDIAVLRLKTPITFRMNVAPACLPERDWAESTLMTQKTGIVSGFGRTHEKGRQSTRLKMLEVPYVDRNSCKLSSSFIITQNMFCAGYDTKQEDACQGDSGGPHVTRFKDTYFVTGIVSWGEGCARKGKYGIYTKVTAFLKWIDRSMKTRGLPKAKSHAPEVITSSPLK
T1 sequence (P00742 41-179 partner limits assumed): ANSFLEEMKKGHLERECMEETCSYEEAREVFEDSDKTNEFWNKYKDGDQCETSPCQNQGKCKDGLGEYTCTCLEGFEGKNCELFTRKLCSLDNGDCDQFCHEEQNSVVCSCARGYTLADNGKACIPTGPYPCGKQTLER
Source text: This example illustrates methods for evaluating the compounds of the invention, along with results obtained for such assays. The in vitro and in vivo human Factor Xa activities of the inventive compounds can be determined by various procedures known in the art, such as a test for their ability to inhibit the activity of human plasma Factor Xa. […] The IC50 value is the concentration (in nM) of the compound required to provide 50% inhibition of human Factor Xa proteolytic activity.
An in vitro assay for detecting and measuring inhibition activity against Factor Xa is as follows:
The substrate S-2765 (Z-D-Arg-Gly-Arg-pNA.HCl) was obtained from Diapharma (West Chester, Ohio).
The human plasma protein factor Xa was purchased from Haematologic Technologies (Essex Junction, Vt.).
All assays, which are performed in 96-well microtiter plates, measure proteolytic activity of the enzyme (factor Xa) by following cleavage of a paranitroanilide peptide substrate. The assay buffer used for proteolytic assays was Tris buffered saline (20 mM Tris, 150 mM NaCl, 5 mM CaCl2, 0.1% Bovine serum albumin (BSA), 5% Dimethly Sulfoxide (DMSO) pH 7.4). In a 96-well microtiter plate, inhibitor was serially diluted to give a range of final concentrations from 0.01 nM to 10 μM. Duplicate sets of wells were assayed and control wells without inhibitor were included. Enzyme was added to each well, (factor Xa concentration=1 nM), the plate was shaken for 5 seconds and then incubated for 5 minutes at room temperature. S-2765 was added (100 μM final) and the plate was shaken for 5 seconds (final volume in each well was 200 μl). The degree of substrate hydrolysis was measured at 405 nm on a Thermomax plate reader (Molecular Devices, Sunnyvale, Calif.) for 2 minutes. The initial velocities of substrate cleavage (mOD/min), for each range of inhibitor concentrations, were fitted to a four parameter equation using Softmax data analysis software. The parameter C, derived from the resulting curve-fit, corresponded to the concentration for half maximal inhibition (IC50).

Structure (SMILES) | IC50 [nM]
O=C(NCc1cn(-c2ccc(-n3ccccc3=O)cc2N2CCCC2=O)nn1)c1ccc(Cl)s1 [Compound 43, 5-Chloro-N-((1-(4-(2-oxopyridin-1(2H)-yl)-2-(2-oxopyrrolidin-1-yl)phenyl)-1H-1,2,3-triazol-4-yl)methyl)thiophene-2-carboxamide] | ≤ 100
O=C(NCc1cn(-c2ccc(-n3ccccc3=O)cc2[N+](=O)[O-])nn1)c1ccc(Cl)s1 [Compound 44, 5-ChIoro-N-((1-(2-nitro-4-(2-oxopyridin-1(2H)-yl)phenyl)-1H-1,2,3-triazol-4-yl)methyl)thiophene-2-carboxamide] | ≤ 100
Nc1cc(-n2ccccc2=O)ccc1-n1cc(CNC(=O)c2ccc(Cl)s2)nn1 [Compound 45, N-((1-(2-Amino-4-(2-oxopyridin-1(2H)-yl)phenyl)-1H-1,2,3-triazol-4-yl)methyl)-5-chlorothiophene-2-carboxamide] | ≤ 100
CSc1cc(-n2ccccc2=O)ccc1-n1cc(CNC(=O)c2ccc(Cl)s2)nn1 [Compound 50, 5-Chloro-N-((1-(2-(methylthio)-4-(2-oxopyridin-1(2H)-yl)phenyl)-1H-1,2,3-triazol-4-yl)methyl)thiophene-2-carboxamide] | ≤ 100
C[S+]([O-])c1cc(-n2ccccc2=O)ccc1-n1cc(CNC(=O)c2ccc(Cl)s2)nn1 (stereo not shown) [Compound 51, 5-Chloro-N-((1-(2-(methylsulfoxy)-4-(2-oxopyridin-1(2H)-yl)phenyl)-1H-1,2,3-triazol-4-yl)methyl)thiophene-2-carboxamide] | ≤ 100
CS(=O)(=O)c1cc(-n2ccccc2=O)ccc1-n1cc(CNC(=O)c2ccc(Cl)s2)nn1 [Compound 52, 5-Chloro-N-((1-(2-(methylsulfonyl)-4-(2-oxopyridin-1(2H)-yl)phenyl)-1H-1,2,3-triazol-4-yl)methyl)thiophene-2-carboxamide] | ≤ 100
NCCSc1cc(-n2ccccc2=O)ccc1-n1cc(CNC(=O)c2ccc(Cl)s2)nn1 [Compound 53, N-((1-(2-(2-Aminoethylthio)-4-(2-oxopyridin-1(2H)-yl)phenyl)-lH-1,2,3-triazol-4-yl)methyl)-5-chlorothiophene-2-carboxamide] | ≤ 100
NCC[S+]([O-])c1cc(-n2ccccc2=O)ccc1-n1cc(CNC(=O)c2ccc(Cl)s2)nn1 (stereo not shown) [Compound 54, N-((1-(2-(2-Aminoethylsulfoxy)-4-(2-oxopyridin-1(2H)-yl)phenyl)-1H-1,2,3-triazol-4-yl)methyl)-5-chlorothiophene-2-carboxamide] | ≤ 100
COc1cc(-n2ccccc2=O)ccc1-n1cc(CNC(=O)c2ccc(Cl)s2)nn1 [Compound 56, 5-Chloro-N-((1-(2-methoxy-4-(2-oxopyridin-1(2H)-yl)phenyl)-1H-1,2,3-triazol-4-yl)methyl)thiophene-2-carboxamide] | ≤ 100
O=C(NCc1cn(-c2ccc(-n3ccccc3=O)cc2OC2CCNCC2)nn1)c1ccc(Cl)s1 [Compound 57, 5-Chloro-N-((1-(4-(2-oxopyridin-1(2H)-yl)-2-(piperidin-4-yloxy)phenyl)-1H-1,2,3-triazol-4-yl)methyl)thiophene-2-carboxamide] | ≤ 100
O=C(NCc1cn(-c2ccc(-n3ccccc3=O)cc2Oc2ccncc2)nn1)c1ccc(Cl)s1 [Compound 63, 5-Chloro-N-((1-(4-(2-oxopyridin-1(2H)-yl)-2-(pyridin-4-yloxy)phenyl)-1H-1,2,3-triazol-4-yl)methyl)thiophene-2-carboxamide] | ≤ 100

The next lines start with the values.

IC50 [nM] | Structure (SMILES)
≤ 100 | O=C(NCc1cn(-c2ccc(-n3ccccc3=O)cc2Oc2cccnc2)nn1)c1ccc(Cl)s1 [Compound 64, 5-Chloro-N-((1-(4-(2-oxopyridin-1(2H)-yl)-2-(pyridin-3-yloxy)phenyl)-1H-1,2,3-triazol-4-yl)methyl)thiophene-2-carboxamide]
≤ 100 | O=C(NCc1cn(-c2ccc(-n3ccccc3=O)cc2OCCCN2C(=O)c3ccccc3C2=O)nn1)c1ccc(Cl)s1 [Compound 67, 5-Chloro-N-((1-(2-(3-(1,3-dioxoisoindolin-2-yl)propoxy)-4-(2-oxopyridin-1(2H)-yl)phenyl)-1H-1,2,3-triazol-4-yl)methyl)thiophene-2-carboxamide]
≤ 100 | NCCCOc1cc(-n2ccccc2=O)ccc1-n1cc(CNC(=O)c2ccc(Cl)s2)nn1 [Compound 68, N-((1-(2-(3-Aminopropoxy)-4-(2-oxopyridin-1(2H)-yl)phenyl)-1H-1,2,3-triazol-4-yl)methyl)-5-chlorothiophene-2-carboxamide]
≤ 100 | O=C(NCc1cn(-c2ccc(-n3ccccc3=O)cc2OCCCO)nn1)c1ccc(Cl)s1 [Compound 74, 5-Chloro-N-((1-(2-(3-hydroxypropoxy)-4-(2-oxopyridin-1(2H)-yl)phenyl)-1H-1,2,3-triazol-4-yl)methyl)thiophene-2-carboxamide]
≤ 100 | O=C(NCc1cn(-c2ccc(-n3ccccc3=O)cc2OCCO)nn1)c1ccc(Cl)s1 [Compound 75, 5-Chloro-N-((1-(2-(2-hydroxyethoxy)-4-(2-oxopyridin-1(2H)-yl)phenyl)-1H-1,2,3-triazol-4-yl)methyl)thiophene-2-carboxamide]
≤ 100 | COCCOc1cc(-n2ccccc2=O)ccc1-n1cc(CNC(=O)c2ccc(Cl)s2)nn1 [Compound 76, 5-Chloro-N-((1-(2-(2-methoxyethoxy)-4-(2-oxopyridin-1(2H)-yl)phenyl)-1H-1,2,3-triazol-4-yl)methyl)thiophene-2-carboxamide]
≤ 100 | O=C(NCc1cn(-c2ccc(-n3ccccc3=O)cc2OC[C@H](O)CO)nn1)c1ccc(Cl)s1 [Compound 78, 5-Chloro-N-((1-(2-((R)-2,3-dihydroxypropoxy)-4-(2-oxopyridin-1(2H)-yl)phenyl)-1H-1,2,3-triazol-4-yl)methyl)thiophene-2-carboxamide]
≤ 100 | O=C(NCc1cn(-c2ccc(-n3ccccc3=O)cc2OC[C@@H](O)CO)nn1)c1ccc(Cl)s1 [Compound 79, 5-Chloro-N-((1-(2-((S)-2,3-dihydroxypropoxy)-4-(2-oxopyridin-1(2H)-yl)phenyl)-1H-1,2,3-triazol-4-yl)methyl)thiophene-2-carboxamide]
≤ 100 | CS(=O)(=O)CCOc1cc(-n2ccccc2=O)ccc1-n1cc(CNC(=O)c2ccc(Cl)s2)nn1 [Compound 80, 5-Chloro-N-((1-(2-(2-(methylsulfonyl)ethoxy)-4-(2-oxopyridin-1(2H)-yl)phenyl)-1H-1,2,3-triazol-4-yl)methyl)thiophene-2-carboxamide]
≤ 100 | CCS(=O)(=O)CCOc1cc(-n2ccccc2=O)ccc1-n1cc(CNC(=O)c2ccc(Cl)s2)nn1 [Compound 82, 5-Chloro-N-((1-(2-(2-(ethylsulfonyl)ethoxy)-4-(2-oxopyridin-1(2H)-yl)phenyl)-1H-1,2,3-triazol-4-yl)methyl)thiophene-2-carboxamide]
≤ 100 | CS(=O)(=O)CCCOc1cc(-n2ccccc2=O)ccc1-n1cc(CNC(=O)c2ccc(Cl)s2)nn1 [Compound 83, 5-Chloro-N-((1-(2-(3-(methylsulfonyl)propoxy)-4-(2-oxopyridin-1(2H)-yl)phenyl)-1H-1,2,3-triazol-4-yl)methyl)thiophene-2-carboxamide]
≤ 100 | CN(C)CCOc1cc(-n2ccccc2=O)ccc1-n1cc(CNC(=O)c2ccc(Cl)s2)nn1 [Compound 85]
≤ 100 | CN(C)CC[N+](C)(C)CCOc1cc(-n2ccccc2=O)ccc1-n1cc(CNC(=O)c2ccc(Cl)s2)nn1 [Compound 86]
≤ 100 | O=C(NCc1cn(-c2ccc(-n3ccccc3=O)cc2OCCN2CCCC2)nn1)c1ccc(Cl)s1 [Compound 88, 5-Chloro-N-((1-(4-(2-oxopyridin-1(2H)-yl)-2-(2-(pyrrolidin-1-yl)ethoxy)phenyl)-1H-1,2,3-triazol-4-yl)methyl)thiophene-2-carboxamide]
≤ 100 | O=C(NCc1cn(-c2ccc(-n3ccccc3=O)cc2OCCN2CCCCC2)nn1)c1ccc(Cl)s1 [Compound 89, 5-Chloro-N-((1-(4-(2-oxopyridin-1(2H)-yl)-2-(2-(piperidin-1-yl)ethoxy)phenyl)-1H-1,2,3-triazol-4-yl)methyl)thiophene-2-carboxamide]
≤ 100 | O=C(NCc1cn(-c2ccc(-n3ccccc3=O)cc2OCCN2CCOCC2)nn1)c1ccc(Cl)s1 [Compound 90, 5-Chloro-N-((1-(2-(2-morpholinoethoxy)-4-(2-oxopyridin-1(2H)-yl)phenyl)-1H-1,2,3-triazol-4-yl)methyl)thiophene-2-carboxamide]
≤ 100 | O=C(NCc1cn(-c2ccc(-n3ccccc3=O)cc2OCCc2ccncc2)nn1)c1ccc(Cl)s1 [Compound 91, 5-Chloro-N-((1-(4-(2-oxopyridin-1(2H)-yl)-2-(2-(pyridin-4-yl)ethoxy)phenyl)-1H-1,2,3-triazol-4-yl)methyl)thiophene-2-carboxamide]
